Where a SMILES comes first, the peptide text is derived from it. Side-chain parts run from the residue outwards. The star is where a group is joined. X1 = CN1CC[C@]23c4c5ccc(O)c4O[C@H]2[C@@H](N*)CC[C@@]3(O)C1C5
Test: Binding affinity of Opioid receptor delta 1 by the displacement of delta-selective [3H]DSLET from brain membrane preparations.

| Compound | Ki [nM] |
| --- | --- |
| CC(C)C[C@H](NC(=O)[C@H](Cc1ccccc1)NC(=O)CNC(=O)[C@H](CCC(=O)N[C@H]1CC[C@@]2(O)C3Cc4ccc(O)c5c4[C@@]2(CCN3C)[C@H]1O5)NC(=O)[C@@H](N)Cc1ccc(O)cc1)C(=O)O [oxymorphamine- and enkephalin-containing ligand 1] (H-YE(X1)GFL-OH) | 26 |
| CC(=O)NCC(=O)NCC(=O)N[C@H]1CC[C@@]2(O)C3Cc4ccc(O)c5c4[C@@]2(CCN3C)[C@H]1O5 [1N-[10,17-dihydroxy-4-methyl-(13R,17S)-12-oxa-4-azapentacyclo[9.6.1.01,13.05,17.07,18]octadeca-7(18),8,10-trien-14-ylcarbamoylmethyl]-2-methylcarboxamidoacetamide] | 181 |
| H-YQGFL-OH | 47 |
| CC(=O)N[C@H]1CC[C@@]2(O)C3Cc4ccc(O)c5c4[C@@]2(CCN3C)[C@H]1O5 [N-[(1S,13R,14S,17S)-10,17-dihydroxy-4-methyl-12-oxa-4-azapentacyclo[9.6.1.0^{1,13}.0^{5,17}.0^{7,18}]octadeca-7(18),8,10-trien-14-yl]acetamide] | 163 |
| CC(C)C[C@H](NC(=O)[C@H](Cc1ccccc1)NC(=O)CNC(=O)[C@H](CCC(=O)NCC(=O)NCC(N)=O)NC(=O)[C@@H](N)Cc1ccc(O)cc1)C(=O)O (H-YE([Gly-Gly-NH2])GFL-OH) | 88 |
| CC(C)C[C@H](NC(=O)[C@H](Cc1ccccc1)NC(=O)CNC(=O)[C@H](CCC(=O)NCC(=O)NCC(=O)N[C@H]1CC[C@@]2(O)C3Cc4ccc(O)c5c4[C@@]2(CCN3C)[C@H]1O5)NC(=O)[C@@H](N)Cc1ccc(O)cc1)C(=O)O [oxymorphamine- and enkephalin-containing ligand 2] (H-YE([Gly-Gly-X1])GFL-OH) | 51 |

Source: BindingDB's records for doi:10.1021/jm00394a010 (University of Minnesota, 1987)
